Here are results for two molecules from patent US10561638B2, “Methods for treating dependence” (Biotie Therapies, Inc., priority 2007, dated 2020).

The subject of data set [1] is spontaneous hypertensive rats. As to the kind of experiment: SCH-23390 pretreatment study in restrained SHRs. It counts as in vivo. To be noted: SCH-23390 iv, post-iv period. The source says: Male, spontaneous hypertensive rats (280-345 g; Charles River Labs, Kingston, N.Y.) were fasted overnight then anesthetized with ether. A femoral artery and femoral vein were cannulated with PE50 tubing for recording of blood pressure and administration of compounds, respectively. Animals were then placed in MAYO restrainers and their feet loosely taped to the restrainer. Heparinized saline (50 units sodium heparin/ml) was used to maintain patency of each cannula throughout the experiment. The following parameters were continuously recorded using Modular Instruments MI^2 BioReport™ software installed on an IBM personal computer: mean arterial pressure (MAP), heart rate (HR), and the change from baseline for each parameter at specified time points in the experiment.
All compounds were dissolved on the day of use. Nepicastat was dissolved in deionized water (vehicle) to a free base concentration of 1 mg/ml. Oral dosing volume for nepicastat or vehicle was 10 ml/kg. SCH-23390 was dissolved in saline (vehicle) to a free base concentration of 0.2 mg/ml. […] or saline were administered intravenously as a bolus in a volume of 1.0 ml/kg followed by 0.2 ml flush of isotonic saline.
Following surgical preparation, each animal was allowed a minimum one hour recovery period. Animals were randomly assigned to four treatment groups: vehicle (iv)/vehicle (po); vehicle (iv)/nepicastat (po); SCH-23390 (iv)/vehicle (po); or SCH-23390 (iv)/nepicastat (po). Once animals were stabilized (minimum one hour), baseline blood pressure and heart rate was determined by taking an average of each parameter over a 15 min period of time. Once baseline blood pressure and heart rate were established, animals were dosed intravenously with either SCH-23390 (200 μg/kg) or vehicle (saline, 1 ml/kg). Fifteen minutes later, animals were orally dosed with either nepicastat (10 mg/kg) or vehicle (deionized water, 10 ml/kg).
Recorded parameters were measured 15 min prior to intravenous dosing to establish baseline blood pressure and heart rate. Recorded parameters were then measured at 5, 10, and 15 min following intravenous administration of SCH-23390 or vehicle. Following oral administration of nepicastat or vehicle, recorded parameters were measured at 15, 30, 60, 90, 120, 150, 180, 210, and 240 min.
At the end of the experiment, each animal was anesthetized with halothane and euthanized via decapitation. The cortex, left ventricle (apex), and mesenteric artery were dissected out, weighed, and fixed in 0.4 M perchloric acid. Tissues were then frozen in liquid nitrogen and stored at −70° C. Biochemical analysis are performed on these tissues at a later date to determine catecholamine levels including dopamine and norepinephrine levels. Blood pressure and heart rate were analyzed separately. The change from baseline for blood pressure and heart rate were analyzed by an analysis of variance (ANOVA) with effects for treatment, time, and their interaction. This analysis was performed both for the post-iv time period and for the post-oral time period. Further analyses were performed at each time by an ANOVA with a main effect for […]. Pairwise comparisons were performed following each ANOVA by Fisher's LSD strategy with a Bonferroni correction when the overall treatment effect was not significant.
An additional analysis was performed to compare the baseline means of each treatment group by an ANOVA with a main effect for treatment and subsequent pairwise comparisons. […]

The next data set concerns normotensive Wistar rats. As to the kind of experiment: 7 day radio-telemetry study in normotensive Wistar rats. To be noted: hydralazine 10 mg/kg. As for the experimental part:
Male Crl:COBS(WI)BR rats of 15 weeks old were used.
Both nepicastat and hydralazine were prepared in water with traces of Tween 80. All doses were given orally to the rat in 10 ml/kg and were expressed as free base equivalents.
All values were expressed as means±SEM. Statistical significance was defined as a p level of less than 0.05.
Body weights were recorded daily.

In the case of `CN1CCc2cc(Cl)c(O)cc2[C@@H](c2ccccc2)C1` [SCH-23390, reference compound], the “decrease in mean arterial pressure” value in data set [1] was found to be 5±1 mmHg.
As for `NNc1nncc2ccccc12` [hydralazine], in the data set with normotensive Wistar rats, the heart rate result was “varying degrees of tachycardia” and the “time in which the hypotensive effect subsided” value was 10 h. The “maximal decrease in MBP” value with normotensive Wistar rats (within 1 hr after dosing on day 1) was −24 mmHg.
